ChEMBL document CHEMBL4507264, “Data for DCP probe BAY-7598” (2021)

Legend:
[1] = biological target: Neuropeptide Y receptor type 2 (Homo sapiens) (UniProt P49146); assay: Inhibition of Neuropeptide Y Y2 at 10 µM in the Eurofins-Panlabs radioligand binding assay (Eurofins_assay_257110); settings: Compound concentration 10.0 uM
[2] = biological target: T1, Muscarinic acetylcholine receptor M2 (Homo sapiens) (UniProt P08172); settings: Compound concentration 10.0 uM
T1 sequence (whole entry): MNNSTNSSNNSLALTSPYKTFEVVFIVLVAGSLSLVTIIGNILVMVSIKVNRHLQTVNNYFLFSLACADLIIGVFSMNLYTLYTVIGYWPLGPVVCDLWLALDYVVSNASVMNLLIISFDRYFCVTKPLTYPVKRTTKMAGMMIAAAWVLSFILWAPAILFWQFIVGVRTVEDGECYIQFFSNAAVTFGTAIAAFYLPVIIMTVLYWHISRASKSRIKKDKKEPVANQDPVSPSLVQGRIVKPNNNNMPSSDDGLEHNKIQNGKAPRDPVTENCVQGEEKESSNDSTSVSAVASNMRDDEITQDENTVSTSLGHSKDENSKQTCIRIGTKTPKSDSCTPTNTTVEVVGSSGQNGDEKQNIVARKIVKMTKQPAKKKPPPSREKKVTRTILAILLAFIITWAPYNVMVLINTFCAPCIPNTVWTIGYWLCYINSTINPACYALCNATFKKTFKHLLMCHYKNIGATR

hERG (KCNH2) = hERG (KCNH2) (Homo sapiens, UniProt Q12809); assay: Inhibition of Potassium Channel hERG at 10 µM in the Eurofins-Panlabs radioligand binding assay (Eurofins_assay_265900); design: ligand concentration 1.5 nM, non-specific ligand with concentration Astemizole, incubation time 60 min, incubation temperature 25 °C; settings: HEK-293 cells expressing human recombinant hERG, probe [3H] Astemizole, compound concentration 10 uM
Rattus norvegicus [3] = species on record: Rattus norvegicus; assay: Inhibition of Imidazoline I2, Central at 10 µM in the Eurofins-Panlabs radioligand binding assay (Eurofins_assay_241000); design: ligand concentration 2 nM; settings: Compound concentration 10.0 uM
[4] = biological target: D(2) dopamine receptor (Homo sapiens) (UniProt P14416); settings: Compound concentration 10.0 uM
[5] = biological target: Melatonin receptor type 1A (Homo sapiens) (UniProt P48039); assay: Inhibition of Melatonin MT1 at 10 µM in the Eurofins-Panlabs radioligand binding assay (Eurofins_assay_251600); design: ligand concentration 0.05 nM; settings: Compound concentration 10.0 uM
[6] = biological target: Beta-1 adrenergic receptor (Homo sapiens) (UniProt P08588); settings: Compound concentration 10.0 uM
[7] = biological target: Alpha-1A adrenergic receptor (Homo sapiens) (UniProt P35348); settings: Rattus norvegicus; Compound concentration 10.0 uM
[8] = biological target: Adenosine receptor A1 (Homo sapiens) (UniProt P30542); settings: Compound concentration 10.0 uM
[9] = biological target: B2 bradykinin receptor (Homo sapiens) (UniProt P30411); assay: Bradykinin B2 Eurofins-Panlabs radioligand binding assay; settings: Compound concentration 10.0 uM
[10] = biological target: L-type calcium channel, dihydropyridine site (Cav1.2 alpha-1C) (Homo sapiens, UniProt Q13936); assay: Inhibition of Calcium Channel L-Type, Dihydropyridine at 10 µM in the Eurofins-Panlabs radioligand binding assay (Eurofins_assay_214600); design: ligand concentration 0.1 nM, non-specific ligand with concentration 1 µM Nitrendipine, incubation time 90 min, incubation temperature 25 °C; settings: Wistar, rat, rat cerebral cortex preparation, probe [3H] Nitrendipine; compound concentration 10 uM; target entry is the homologue from another species
[11] = biological target: Histamine H1 receptor (Homo sapiens) (UniProt P35367); settings: Compound concentration 10.0 uM
[12] = biological target: Sodium-dependent noradrenaline transporter (Homo sapiens) (UniProt P23975); settings: Compound concentration 10.0 uM
[13] = biological target: Delta-type opioid receptor (Homo sapiens) (UniProt P41143); settings: Compound concentration 10.0 uM
Homo sapiens = species on record: Homo sapiens; assay: Inhibition of Nicotinic Acetylcholine at compound concentration of 10.0 uM in the Eurofins-Panlabs radioligand binding assay (Eurofins_assay_258590); type: protein-complex assay; settings: Compound concentration 10.0 uM
[14] = biological target: Glutamate receptor ionotropic, kainate (Rattus norvegicus) (UniProt P22756+Q01812+P42260+P42264+Q63273); assay: Inhibition of Glutamate, Kainate at 10 µM in the Eurofins-Panlabs radioligand binding assay (Eurofins_assay_232700); settings: Compound concentration 10.0 uM
[15] = biological target: Glucocorticoid receptor (Homo sapiens) (UniProt P04150); settings: Compound concentration 10.0 uM
[16] = biological target: Adenosine receptor A2a (Homo sapiens) (UniProt P29274); settings: Compound concentration 10.0 uM
[17] = biological target: 5-hydroxytryptamine receptor 3A (Homo sapiens) (UniProt P46098); settings: Compound concentration 10.0 uM
[18] = biological target: Voltage-dependent N-type calcium channel subunit alpha-1B (Homo sapiens) (UniProt Q00975); assay: Inhibition of Calcium Channel N-Type at 10 µM in the Eurofins-Panlabs radioligand binding assay (Eurofins_assay_216000); settings: Rattus norvegicus; Compound concentration 10.0 uM
[19] = biological target: Sodium-dependent serotonin transporter (Homo sapiens) (UniProt P31645); settings: Compound concentration 10.0 uM
[20] = biological target: T2, Alpha-1D adrenergic receptor (Homo sapiens) (UniProt P25100); assay: Inhibition of Adrenergic alpha1D at 10 µM in the Eurofins-Panlabs radioligand binding assay (Eurofins_assay_203400); settings: Compound concentration 10.0 uM
T2 sequence (whole entry): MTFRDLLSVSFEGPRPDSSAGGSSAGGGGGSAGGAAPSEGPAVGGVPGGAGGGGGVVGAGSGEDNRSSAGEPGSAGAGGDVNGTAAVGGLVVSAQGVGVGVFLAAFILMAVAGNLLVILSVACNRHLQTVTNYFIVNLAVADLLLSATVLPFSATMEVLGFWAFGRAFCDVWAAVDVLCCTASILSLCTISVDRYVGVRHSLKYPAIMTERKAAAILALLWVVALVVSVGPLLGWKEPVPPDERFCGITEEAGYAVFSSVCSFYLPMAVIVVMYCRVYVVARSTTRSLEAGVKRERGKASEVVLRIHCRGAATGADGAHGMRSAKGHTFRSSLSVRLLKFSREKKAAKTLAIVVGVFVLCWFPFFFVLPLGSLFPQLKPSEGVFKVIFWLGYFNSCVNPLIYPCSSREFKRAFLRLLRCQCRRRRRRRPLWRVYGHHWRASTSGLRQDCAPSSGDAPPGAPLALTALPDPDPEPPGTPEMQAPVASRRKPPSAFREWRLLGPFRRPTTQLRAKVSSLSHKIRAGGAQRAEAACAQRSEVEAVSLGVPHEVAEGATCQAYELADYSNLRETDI

[21] = biological target: Substance-P receptor (Homo sapiens) (UniProt P25103); assay: Inhibition of Tachykinin NK1 at 10 µM in the Eurofins-Panlabs radioligand binding assay (Eurofins_assay_255520); design: ligand concentration 0.8 nM; settings: Compound concentration 10.0 uM
Rattus norvegicus [22] = species on record: Rattus norvegicus; settings: Compound concentration 10.0 uM
[23] = biological target: Cysteinyl leukotriene receptor 1 (Homo sapiens) (UniProt Q9Y271); assay: Inhibition of Leukotriene, Cysteinyl CysLT1 at 10 µM in the Eurofins-Panlabs radioligand binding assay (Eurofins_assay_250460); design: ligand concentration 0.3 nM, non-specific ligand with concentration 0.3 µM Leukotriene D4, incubation time 30 min, incubation temperature 25 °C; settings: Compound concentration 10.0 uM
[24] = biological target: Mu-type opioid receptor (Homo sapiens) (UniProt P35372); settings: Compound concentration 10.0 uM

Sequence of Cysteinyl leukotriene receptor 1 (Homo sapiens) (Q9Y271 whole entry): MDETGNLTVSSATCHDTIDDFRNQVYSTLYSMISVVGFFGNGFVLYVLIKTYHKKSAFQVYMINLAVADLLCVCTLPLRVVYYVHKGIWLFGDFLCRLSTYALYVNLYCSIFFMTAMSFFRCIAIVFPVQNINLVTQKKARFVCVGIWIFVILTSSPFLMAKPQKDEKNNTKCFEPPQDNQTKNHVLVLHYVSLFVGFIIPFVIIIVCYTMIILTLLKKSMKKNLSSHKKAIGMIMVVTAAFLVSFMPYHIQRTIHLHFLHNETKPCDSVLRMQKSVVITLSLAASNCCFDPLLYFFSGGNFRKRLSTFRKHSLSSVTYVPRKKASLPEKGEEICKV
Sequence of Sodium-dependent serotonin transporter (Homo sapiens) (P31645 whole entry, looked up): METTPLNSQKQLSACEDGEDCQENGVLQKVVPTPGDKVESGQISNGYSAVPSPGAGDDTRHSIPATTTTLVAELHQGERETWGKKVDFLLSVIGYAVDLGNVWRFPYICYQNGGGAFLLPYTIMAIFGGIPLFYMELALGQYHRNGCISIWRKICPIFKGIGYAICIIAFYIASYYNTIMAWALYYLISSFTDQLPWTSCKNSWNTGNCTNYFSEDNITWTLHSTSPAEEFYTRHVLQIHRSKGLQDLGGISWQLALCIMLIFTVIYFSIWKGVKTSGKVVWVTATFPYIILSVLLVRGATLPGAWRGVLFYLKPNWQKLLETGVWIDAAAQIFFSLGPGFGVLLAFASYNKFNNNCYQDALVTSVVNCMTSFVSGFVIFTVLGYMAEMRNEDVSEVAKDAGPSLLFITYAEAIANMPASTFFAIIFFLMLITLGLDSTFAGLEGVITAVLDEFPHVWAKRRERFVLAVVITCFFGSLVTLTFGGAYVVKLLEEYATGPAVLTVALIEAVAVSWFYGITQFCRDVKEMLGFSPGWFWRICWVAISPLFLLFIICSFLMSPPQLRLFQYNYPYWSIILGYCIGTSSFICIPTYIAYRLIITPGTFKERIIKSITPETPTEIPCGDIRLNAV
Sequence of 5-hydroxytryptamine receptor 3A (Homo sapiens) (P46098 whole entry): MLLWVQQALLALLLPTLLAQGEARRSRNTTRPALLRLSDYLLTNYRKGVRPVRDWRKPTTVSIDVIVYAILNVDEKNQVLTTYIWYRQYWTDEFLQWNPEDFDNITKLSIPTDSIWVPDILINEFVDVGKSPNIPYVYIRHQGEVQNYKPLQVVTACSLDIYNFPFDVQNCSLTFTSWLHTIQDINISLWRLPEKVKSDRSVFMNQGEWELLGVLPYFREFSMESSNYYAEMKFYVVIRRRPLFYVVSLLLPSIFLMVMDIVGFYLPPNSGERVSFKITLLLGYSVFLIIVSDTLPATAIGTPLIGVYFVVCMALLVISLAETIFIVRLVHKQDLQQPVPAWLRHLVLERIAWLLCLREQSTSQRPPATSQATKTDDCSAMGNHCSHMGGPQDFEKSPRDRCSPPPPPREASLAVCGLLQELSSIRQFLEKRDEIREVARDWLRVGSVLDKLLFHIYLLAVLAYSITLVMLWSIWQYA
Sequence of D(2) dopamine receptor (Homo sapiens) (P14416 whole entry): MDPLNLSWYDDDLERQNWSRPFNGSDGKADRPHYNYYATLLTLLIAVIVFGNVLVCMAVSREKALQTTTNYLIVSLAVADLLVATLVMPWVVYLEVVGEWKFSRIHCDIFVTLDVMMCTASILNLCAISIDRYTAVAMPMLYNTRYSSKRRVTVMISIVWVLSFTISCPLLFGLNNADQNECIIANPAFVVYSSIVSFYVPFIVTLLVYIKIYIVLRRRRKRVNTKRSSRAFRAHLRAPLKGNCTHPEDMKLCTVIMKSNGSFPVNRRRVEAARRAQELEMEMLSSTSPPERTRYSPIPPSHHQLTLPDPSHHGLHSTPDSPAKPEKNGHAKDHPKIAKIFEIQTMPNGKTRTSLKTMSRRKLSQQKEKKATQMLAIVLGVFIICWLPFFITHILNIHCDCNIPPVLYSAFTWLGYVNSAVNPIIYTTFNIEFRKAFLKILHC
Sequence of Neuropeptide Y receptor type 2 (Homo sapiens) (P49146 whole entry): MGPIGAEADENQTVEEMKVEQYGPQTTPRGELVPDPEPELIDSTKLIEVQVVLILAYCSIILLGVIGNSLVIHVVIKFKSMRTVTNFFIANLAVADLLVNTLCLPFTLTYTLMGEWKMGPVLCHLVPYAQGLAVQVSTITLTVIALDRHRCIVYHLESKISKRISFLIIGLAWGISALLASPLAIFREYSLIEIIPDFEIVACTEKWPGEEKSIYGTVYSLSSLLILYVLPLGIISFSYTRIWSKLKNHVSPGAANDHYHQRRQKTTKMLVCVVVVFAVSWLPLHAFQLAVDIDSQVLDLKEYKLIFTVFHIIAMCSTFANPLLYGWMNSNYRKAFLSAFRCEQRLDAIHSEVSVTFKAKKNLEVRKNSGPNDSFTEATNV
Sequence of Alpha-1A adrenergic receptor (Homo sapiens) (P35348 whole entry): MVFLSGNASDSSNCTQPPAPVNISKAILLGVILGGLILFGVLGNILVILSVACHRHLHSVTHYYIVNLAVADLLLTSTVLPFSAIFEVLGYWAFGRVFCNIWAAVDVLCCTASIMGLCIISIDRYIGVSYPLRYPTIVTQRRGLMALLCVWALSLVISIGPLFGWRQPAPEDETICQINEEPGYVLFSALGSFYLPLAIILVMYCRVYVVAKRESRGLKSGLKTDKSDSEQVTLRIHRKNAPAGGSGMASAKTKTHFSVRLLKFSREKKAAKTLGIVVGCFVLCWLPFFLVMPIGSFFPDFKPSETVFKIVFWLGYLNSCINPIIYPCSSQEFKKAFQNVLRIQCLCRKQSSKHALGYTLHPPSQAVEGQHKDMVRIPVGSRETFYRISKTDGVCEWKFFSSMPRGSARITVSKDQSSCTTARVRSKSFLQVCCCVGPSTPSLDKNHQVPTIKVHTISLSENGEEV
Sequence of Substance-P receptor (Homo sapiens) (P25103 whole entry): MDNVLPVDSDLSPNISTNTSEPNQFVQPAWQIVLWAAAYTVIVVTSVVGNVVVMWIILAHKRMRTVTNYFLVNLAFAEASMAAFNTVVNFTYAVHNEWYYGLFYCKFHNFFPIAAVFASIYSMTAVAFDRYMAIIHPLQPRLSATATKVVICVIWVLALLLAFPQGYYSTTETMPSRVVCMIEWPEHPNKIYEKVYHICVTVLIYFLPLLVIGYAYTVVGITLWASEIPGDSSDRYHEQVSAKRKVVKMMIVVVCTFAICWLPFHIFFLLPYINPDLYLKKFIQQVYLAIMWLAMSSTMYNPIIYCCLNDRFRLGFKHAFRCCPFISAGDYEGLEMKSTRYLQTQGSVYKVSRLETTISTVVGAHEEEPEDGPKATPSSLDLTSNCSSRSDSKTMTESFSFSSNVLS
Sequence of B2 bradykinin receptor (Homo sapiens) (P30411 whole entry): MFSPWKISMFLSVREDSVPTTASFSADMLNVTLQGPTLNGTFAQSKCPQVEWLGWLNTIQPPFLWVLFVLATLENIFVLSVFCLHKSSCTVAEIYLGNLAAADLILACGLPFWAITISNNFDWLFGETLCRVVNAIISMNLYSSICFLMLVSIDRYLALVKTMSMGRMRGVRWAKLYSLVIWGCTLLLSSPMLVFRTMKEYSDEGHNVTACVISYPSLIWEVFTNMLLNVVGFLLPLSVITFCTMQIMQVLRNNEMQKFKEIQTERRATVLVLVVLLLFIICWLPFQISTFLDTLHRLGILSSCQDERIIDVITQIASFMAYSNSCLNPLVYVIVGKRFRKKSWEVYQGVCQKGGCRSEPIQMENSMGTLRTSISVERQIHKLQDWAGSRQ
Sequence of Beta-1 adrenergic receptor (Homo sapiens) (P08588 whole entry, looked up): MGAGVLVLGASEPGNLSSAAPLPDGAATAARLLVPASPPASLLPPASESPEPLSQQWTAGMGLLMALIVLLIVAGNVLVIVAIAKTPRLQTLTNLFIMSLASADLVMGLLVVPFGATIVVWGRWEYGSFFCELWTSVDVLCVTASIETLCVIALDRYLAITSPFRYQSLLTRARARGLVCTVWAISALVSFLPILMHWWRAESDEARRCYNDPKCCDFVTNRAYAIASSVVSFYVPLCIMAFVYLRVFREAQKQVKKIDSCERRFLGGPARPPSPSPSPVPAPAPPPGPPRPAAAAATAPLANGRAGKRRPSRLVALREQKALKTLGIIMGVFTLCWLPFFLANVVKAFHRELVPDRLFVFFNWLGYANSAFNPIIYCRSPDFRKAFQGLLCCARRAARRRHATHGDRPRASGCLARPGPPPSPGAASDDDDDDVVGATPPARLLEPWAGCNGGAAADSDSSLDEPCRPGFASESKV
Sequence of Sodium-dependent noradrenaline transporter (Homo sapiens) (P23975 whole entry): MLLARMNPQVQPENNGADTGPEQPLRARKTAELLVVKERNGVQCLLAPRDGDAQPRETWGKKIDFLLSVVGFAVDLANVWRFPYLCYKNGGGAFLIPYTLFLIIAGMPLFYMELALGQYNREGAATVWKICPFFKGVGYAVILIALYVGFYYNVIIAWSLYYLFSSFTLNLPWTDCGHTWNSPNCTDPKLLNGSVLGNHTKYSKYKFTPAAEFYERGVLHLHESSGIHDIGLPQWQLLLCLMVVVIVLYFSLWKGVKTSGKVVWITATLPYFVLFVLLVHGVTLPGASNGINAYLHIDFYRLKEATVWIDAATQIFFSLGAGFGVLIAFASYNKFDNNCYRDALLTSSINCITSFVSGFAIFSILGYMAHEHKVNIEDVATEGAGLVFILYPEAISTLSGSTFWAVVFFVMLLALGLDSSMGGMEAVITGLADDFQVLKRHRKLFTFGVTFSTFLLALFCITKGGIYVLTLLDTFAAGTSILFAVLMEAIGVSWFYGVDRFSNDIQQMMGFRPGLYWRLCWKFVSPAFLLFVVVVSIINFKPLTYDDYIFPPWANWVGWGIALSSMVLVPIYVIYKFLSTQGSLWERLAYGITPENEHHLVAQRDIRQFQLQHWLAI
Sequence of Adenosine receptor A1 (Homo sapiens) (P30542 whole entry): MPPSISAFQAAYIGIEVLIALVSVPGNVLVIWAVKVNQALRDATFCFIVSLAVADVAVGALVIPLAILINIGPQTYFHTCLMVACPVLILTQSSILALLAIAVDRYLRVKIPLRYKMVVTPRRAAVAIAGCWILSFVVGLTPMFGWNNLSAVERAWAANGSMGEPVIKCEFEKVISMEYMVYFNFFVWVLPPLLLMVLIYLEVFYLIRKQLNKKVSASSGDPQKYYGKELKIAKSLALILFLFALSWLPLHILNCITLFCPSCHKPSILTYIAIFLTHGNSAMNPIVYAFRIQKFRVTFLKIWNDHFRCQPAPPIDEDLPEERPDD

`O=C(O)[C@H]1[C@H](Cn2nnc3ccccc3c2=O)CC[C@@H]1C(=O)c1ccc(OCCC2CCOCC2)cc1` [BAY-7598] was tested, and the inhibition [1] was 3%, the inhibition [2] was 0% and the inhibition at 60 min, 10 µM (hERG (KCNH2)) was 7% (not active). For the same compound, the inhibition (Rattus norvegicus [3]) was 5%, the inhibition [4] was 2% and the inhibition [5] was 2%. The inhibition [6] was 0%, the inhibition [7] was 1% and the inhibition [8] was -2%. For the same compound, the inhibition [9] was -10%, the inhibition at 90 min, 10 µM [10] was 0% (not active) and the inhibition [11] was 1%. The inhibition [12] was 6%, the inhibition [13] was 9% and the inhibition (Homo sapiens) was -1%. It also gave an inhibition [14] of -4%, an inhibition [15] of 12% and an inhibition [16] of 7%. For the same compound, the inhibition [17] was -7.84%, the inhibition [18] was 6% and the inhibition [19] was 9%. It also gave an inhibition [20] of -9%, an inhibition [21] of -4% and an inhibition (Rattus norvegicus [22]) of 1%. For the same compound, the inhibition [23] was 8% and the inhibition [24] was -9.72%.
